# Source: ChEMBL document CHEMBL1201862, “PubChem BioAssay data set” (2004)
# Activity calls are given as the source filed them. Rule as the data show it: actives have a measured IC50 and inactives only a lower limit.
# Target: Envelope glycoprotein gp160 (Human immunodeficiency virus 1, UniProt Q6QLK5)
# Assay: cell-free HIV fusion peptide-binding blockers – biochemical, uHTS, fluorescence dequenching, […] (AID 1986)
# Sequence of Envelope glycoprotein gp160 (Q6QLK5 whole entry, the tested form may be a part): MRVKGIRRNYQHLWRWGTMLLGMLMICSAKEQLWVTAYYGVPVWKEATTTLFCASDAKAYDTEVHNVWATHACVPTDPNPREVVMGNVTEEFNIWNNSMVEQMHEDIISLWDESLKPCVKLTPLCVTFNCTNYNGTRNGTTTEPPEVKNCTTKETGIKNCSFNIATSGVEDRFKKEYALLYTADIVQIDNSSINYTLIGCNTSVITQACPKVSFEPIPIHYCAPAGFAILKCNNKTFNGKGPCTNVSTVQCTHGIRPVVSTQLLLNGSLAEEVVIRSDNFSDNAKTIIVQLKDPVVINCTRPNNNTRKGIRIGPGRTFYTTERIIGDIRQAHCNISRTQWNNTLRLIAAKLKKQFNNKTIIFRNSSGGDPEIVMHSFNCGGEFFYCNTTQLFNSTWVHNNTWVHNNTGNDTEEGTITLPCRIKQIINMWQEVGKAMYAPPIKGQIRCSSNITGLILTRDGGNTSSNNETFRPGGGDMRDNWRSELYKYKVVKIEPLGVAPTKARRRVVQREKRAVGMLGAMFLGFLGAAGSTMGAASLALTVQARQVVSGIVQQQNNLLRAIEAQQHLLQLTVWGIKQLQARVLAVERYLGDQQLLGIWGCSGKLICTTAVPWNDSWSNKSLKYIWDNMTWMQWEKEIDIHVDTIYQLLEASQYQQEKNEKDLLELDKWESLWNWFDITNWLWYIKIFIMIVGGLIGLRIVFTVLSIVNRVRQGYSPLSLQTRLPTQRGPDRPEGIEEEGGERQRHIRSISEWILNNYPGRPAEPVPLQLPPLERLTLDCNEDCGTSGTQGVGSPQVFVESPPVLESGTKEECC
compound,measurement,value
O=C(CN1C(=O)/C(=C2\SC(=S)N(CCS(=O)(=O)O)C2=O)c2ccccc21)Nc1cccc(Br)c1,IC50,9.81 µM (active)
